One may read the amount remaining as what is left of the initial amount, in per cent.

The test system of series [1] is MRCS cell line. Description: in vitro. It is filed as cell-based. Conditions: concentration indicating 50% survival, 24 h, MTS; read-out: LC50 (the source's name). How it is done: In order to determine whether the peptoids were cytotoxic against human cell lines, […] cell line (Korean Cell Line Bank) which is a human lung cell line was cultured in a DMEM (Dulbecco's modified Eagle's medium) culture solution containing 10% (v/v) fetal bovine serum (FBS) at 5% CO2 and a temperature of 37° C. 100 μL of DMEM medium was dispensed into each well of a 96-well microtiter plate so that the number of cells was 1.3×10^4, and then incubated overnight at a temperature of 37° C. in a 5% CO2 incubator. In this case, a DMEM medium was used as a negative control. Thereafter, the peptoid which is 2-fold serially diluted using sterile water was added to each well, and then incubated for 24 hours.
After incubation, 20 μL of an MTS solution [3-(4,5-dimethylthiazol-2-yl)-5-(3-carboxymethoxyphenyl)-2-(4-sulfophenyl)-2H-tetrazolium, inner salt; MTS] was added thereto and incubated at a temperature of 37° C. for 4 hours. Thereafter, % survival was calculated by measuring absorbance at a wavelength of 490 nm using an ELISA reader. The % survival was calculated as a percentage obtained by dividing the absorbance value for a well-treated with the peptoid by the absorbance value for a well containing control cells which had not been treated with the peptoid.

The subject of series [2] is B. subtilis. It is filed as cell-based. Conditions: 18 h. How it is done: In order to measure antimicrobial activity of the peptoids, Gram-positive B. subtilis or Gram-negative E. coli strain DH5α was treated with Peptoid NOS. 1, 18 to 23, and the peptide Pexiganan, and minimum inhibitory concentrations were measured. Peptoid NOS. 1 and 2, and the peptide Pexiganan are already known antimicrobial peptoids and peptides, and were used for the purpose of making a comparison with novel peptoids in terms of antimicrobial activity.
Specifically, B. subtilis or E. coli DHS a was inoculated into LB liquid medium, and cultured at a temperature of 37° C. for 18 hours. Thereafter, the bacteria were diluted with LB medium so that each bacterial number was 2×10^5 colony-forming units (CFU) per 1 mL, and dispensed into 96-well microtiter plates at 100 μL each. The peptoid, which is 2-fold serially diluted using sterile water, was added to each well at 100 μL each. The plates were incubated at a temperature of 37° C. for 18 hours.
Thereafter, absorbance was measured at a wavelength of 600 nm using a microplate reader (Bio-Rad). The lowest peptoid concentration that completely suppresses growth of microorganisms was measured by a minimum inhibitory concentration (MIC), and the measurement results are shown in Table 12 below. Each of the minimum inhibitory concentration values was calculated as an average value of numerical values obtained through three independent experiments.

Series [3] can be described thus: Metabolic stability in human liver S9 fraction, HPLC. It is filed as in vitro ADME. Conditions: human, s9, pH 7.4. How it is done:
In order to identify metabolic stability of the peptoids synthesized in Preparation Example 1, such peptoids were subjected to enzymatic reaction using S9 fraction which is a mixture of human liver tissue-extracted metabolic enzymes. Thereafter, for the reaction products, metabolites were quantitated using HPLC.
Specifically, Peptoid NOS. 1 and 4, and Pexiganan as a peptide control (40 μL each, 100 μM) were treated with […], 3.3 mM MgCl2, and 1.3 mM NADPH buffer (306 μL, pH=7.4), to prepare respective samples. The respective samples were treated with S9 fraction (2 μL, 0.1 mg/mL) and then incubated at a temperature of 37° C. When 0, 1, 4, and 24 hours had elapsed after treatment with the S9 fraction, 40 μL of each sample was taken out, and acetonitrile containing the same amount of 0.1% trifluoroacetic acid was used to stop activity of enzymes contained in the S9 fraction. Thereafter, proteins precipitated with acetonitrile were centrifuged at a condition of 1,000×g for 10 minutes at a temperature of 4° C. Then, supernatant was analyzed by HPLC to identify an amount of the remaining peptoid which had not been degraded by the enzymes in the S9 fraction.

Series [4] has as its system red blood cells. Description: Hemolytic activity on red blood cells. It is filed as cell-based, mouse. The gist of the method: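 Washed mouse red blood cells (10% v/v in PBS, pH 7.4) incubated with peptoids for 1 h at 37 °C; released haemoglobin read at 540 nm. % hemolysis normalised to 0.1% Triton X-100 (100%) and PBS blank; HD10, HD50 derived, Hmax taken at 200 μM top concentration.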

Series [5] has as its system P. aeruginosa (198B MDR). Put plainly: MIC in multidrug-resistant bacteria panel, modified microdilution. The series is classed as cell-based. The following applies: overnight, 37° C. How it is done: (§1) Minimum inhibitory concentrations of the prepared peptoids for multidrug-resistant bacteria were measured using a modified microdilution method in Difco Mueller Hinton medium, and tests were done on a panel of bacterial pathogens which have resistance and tolerance against common antibiotics.
(§2) Briefly, a peptoid concentrate, which is 10-fold more concentrated than a final concentration, was serially diluted with a medium containing 0.2% bovine serum albumin and 0.01% acetic acid. 10 μL of the 10-fold concentrated peptoid concentrate and 90 μL of Muller Hinton medium were added to each well of a 96-well polypropylene microtitre plate. Bacteria were added to the plate so that a final concentration thereof was 2×10^5 CFU/mL, and then incubated overnight at a temperature of 37° C. The minimum inhibitory concentration was defined as a concentration at which no bacterial growth is observed.
For orientation: Broth dilution looks for growth in wells or tubes with falling amounts of substance.

The subject of series [6] is S. epidermidis (ET-024 MRSA). The series is described as above. The series is classed as cell-based. Conditions: overnight, 37° C. How it is done:
as §1, §2

For series [7], the system named is S. aureus (ATCC25923). The series is described as above. Conditions: overnight, 37° C. It is filed as cell-based. How it is done:
as §1, §2

Series [8] has as its system E. coli (63103 ESBL). The description is as above. The series is classed as cell-based. Conditions: overnight, 37° C. How it is done:
as §1, §2

In series [9] the test system is P. aeruginosa (PA01). Described as above. It is filed as cell-based. The following applies: overnight, 37° C. How it is done: as §1, §2
For series [10], the system named is E. coli strain ATCC25922. It is filed as cell-based. The following applies: for MBC E. coli: ATCC25922; for MIC E. coli: ATCC25922, 18 h. Summed up: (§3)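 Broth microdilution in cation-adjusted Mueller Hinton Broth used 2×10^5 CFU/mL in medium with 0.2% BSA and 0.01% acetic acid. Peptoids were 2-fold serially diluted, and plates were incubated 18 hours at 37° C. with absorbance read at 600 nm. MIC was the lowest concentration completely suppressing growth, averaged over three independent experiments; MBC was also determined.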

Series [11] deals with S. aureus strain KCTC1621. It is filed as cell-based. The following applies: for MBC S. aureus: KCTC1621; for MIC S. aureus: KCTC1621, 18 h. Summed up: as §3
The subject of series [12] is E. coli. Put plainly: Selectivity analysis, HD10 divided by MIC for E. coli. The following applies: HD10 of Table 6 divided by MIC for E. coli ATCC25922. How it is done:
In order to identify changes in selectivity depending on alteration of degree of folding in helical structure of peptoids, selectivity of each peptoid was calculated using the resultant values measured in the Experimental Examples 1 and 2. The selectivity was obtained by dividing the HD10 value by the minimum inhibitory concentration for E. coli (Table 8).

In brackets after ≈: the same amount, converted by molar mass. Non-standard residues stand in square brackets, D forms with d. Residues, ends and D or L forms follow the SMILES beside them. No end group written: not given here. Nspe = C[C@H](NCC(=O)O)c1ccccc1; Nphe = O=C(O)CNCc1ccccc1; Nlys = NCCCCNCC(=O)O Bounds are passed on as bounds.

Regarding “GIGKFLKKAKKFGKAFVKILKK-NH2 [Pexiganan, reference compound]”, the CC50 in series [1] is 21.2 µM. For the same compound, the “MIC B. subtilis” value in series [2] came to 0.4 µM. This compound also showed a fraction remaining at 24 h, 11.5 μM in series [3] below 1%. In [4], this compound gave an HD10 of 113.4 and an HD50 above 200.

For `C[C@@H](c1ccccc1)N(CC(N)=O)C(=O)CN(Cc1ccccc1)C(=O)CN(CCCCN)C(=O)CN(Cc1ccccc1)C(=O)CN(Cc1ccccc1)C(=O)CN(CCCCN)C(=O)CN(Cc1ccccc1)C(=O)CN(Cc1ccccc1)C(=O)CN(CCCCN)C(=O)CN(C(=O)CN(C(=O)CNCCCCN)[C@@H](C)c1ccccc1)[C@@H](C)c1ccccc1` [compound 13], the “minimum inhibitory concentration P. aeruginosa (198B MDR)” value in series [5] is 6.3. Moreover, the “minimum inhibitory concentration S. epidermidis (ET-024 MRSA)” value in series [6] is below 0.8 to 0.8. The “minimum inhibitory concentration S. aureus (ATCC25923)” value in [7] is recorded as 3.1. Further, the “minimum inhibitory concentration E. coli (63103 ESBL)” value in series [8] was 6.3. In addition, in series [9], the “minimum inhibitory concentration P. aeruginosa (PA01)” value worked out at 6.3. Moreover, in series [10], the “MBC E. coli” value worked out at 25 µM (≈ 43.7 µg/mL) and the “MIC E. coli” value was 25 µM (≈ 43.7 µg/mL). In series [11], the “MBC S. aureus” value was 6.3 µM (≈ 11 µg/mL) and the “MIC S. aureus” value amounted to 3.1 µM (≈ 5.42 µg/mL). Further, the “Selectivity [HD10/MIC (E. coli)]” value in series [12] turned out to be 3.3. In [4], this compound gave an HD10 of 81.7 and an HD50 above 200.

As to `C[C@@H](c1ccccc1)N(CC(=O)N(CCCCN)CC(=O)N(CC(=O)N(CC(=O)N(CCCCN)CC(=O)N(CC(=O)N(CC(N)=O)Cc1ccccc1)Cc1ccccc1)[C@@H](C)c1ccccc1)[C@@H](C)c1ccccc1)C(=O)CN(Cc1ccccc1)C(=O)CN(CCCCN)C(=O)CN(Cc1ccccc1)C(=O)CN(Cc1ccccc1)C(=O)CNCCCCN` [compound 15] (H-[Nlys][Nphe][Nphe][Nlys][Nphe][Nspe][Nlys][Nspe][Nspe][Nlys][Nphe][Nphe]-NH2), the “minimum inhibitory concentration P. aeruginosa (198B MDR)” value in [5] was 6.3. In addition, the “minimum inhibitory concentration S. epidermidis (ET-024 MRSA)” value in series [6] is below 0.8 to 0.8. Moreover, the “minimum inhibitory concentration S. aureus (ATCC25923)” value in series [7] is 3.1. In addition, in series [8], the “minimum inhibitory concentration E. coli (63103 ESBL)” value is reported as 6.3. In [10], the “MBC E. coli” value was determined as 25 µM (≈ 43.7 µg/mL) and the “MIC E. coli” value is 12.5 µM (≈ 21.9 µg/mL). Besides, in series [11], the “MBC S. aureus” value came out at 3.1 µM (≈ 5.42 µg/mL) and the “MIC S. aureus” value stood at 3.1 µM (≈ 5.42 µg/mL). Further, in [12], the “Selectivity [HD10/MIC (E. coli)]” value was 2.1. In series [4], this compound showed an HD10 of 26.8 and an HD50 of 155.8.

Values taken from US10815275B2, “Antimicrobial peptoids with improved selectivity and use thereof” (priority 2018, dated 2020).
